According to US7455998B2, “Methods for forming structurally defined organic molecules” (Dow Corning Corporation, priority 2004, dated 2008):

Tests used:
trypsin [1] = target: T1, trypsin (Bos taurus, UniProt P00760); experiment: Trypsin-catalyzed hydrolysis and condensation of alkoxysilanes; assay type: biochemical, bovine; set-up: purchased Sigma-Aldrich #T4665; host or cells: bovine pancreas; settings: 4:1 monomer to enzyme weight ratio, 25° C., three hours
T1 sequence (P00760 24-246): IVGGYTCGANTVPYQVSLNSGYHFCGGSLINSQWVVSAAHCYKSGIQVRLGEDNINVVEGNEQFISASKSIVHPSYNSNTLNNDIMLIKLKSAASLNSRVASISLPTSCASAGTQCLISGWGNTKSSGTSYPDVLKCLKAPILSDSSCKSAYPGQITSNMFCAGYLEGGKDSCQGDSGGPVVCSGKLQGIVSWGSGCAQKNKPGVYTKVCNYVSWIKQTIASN

trypsin [2] = target: T1, trypsin; experiment: Trypsin-catalyzed ring opening polymerization of cyclic siloxanes; assay type: biochemical, bovine; set-up: purchased Sigma-Aldrich #T4665; host or cells: bovine pancreas; settings: 25° C., pH 7.0, 8 days, qualitative GC; for Cyclic Area Percent, Trimer (x = 3), Trypsin / Cyclic Area Percent, Tetramer (x = 4), Trypsin / Cyclic Area Percent, Pentamer (x = 5), Trypsin: with trypsin; for Cyclic Area Percent, Trimer (x = 3), Control / Cyclic Area Percent, Tetramer (x = 4), Control / Cyclic Area Percent, Pentamer (x = 5), Control: without trypsin
From the text: The ability of trypsin to catalyze the cleavage and formation of Si—O bonds during the ring opening polymerization of cyclic siloxanes was explored under mild conditions. Specifically, five cyclic siloxanes: hexamethylcyclotrisiloxane, octamethylcyclotetrasiloxane, trimethyltri(trifluoropropyl)cyclotrisiloxane, tetramethyltetra(trifluoropropyl)cyclotetrasiloxane, and tetramethyltetraphenylcyclotetrasiloxane, were selected to study how the activity of trypsin varied as a result of different steric and electronic interactions with the substrate.
The two-phase reactions were formulated with a 4:1 monomer to enzyme weight ratio and conducted at 25° C. in neutral media (pH 7.0) for 8 days. The reaction products were isolated and qualitatively analyzed by GC (Table 5).

[3] = Protease-catalyzed condensation study after three hours; assay type: biochemical
Experimental: In comparison to control reactions, the ability of the proteases detailed in Table 3 to catalyse siloxane condensation was screened with […]. Comparatively, the original reactions conducted in the enzyme-catalysed condensation study were performed for six days versus three hours in this study.
Prior to reaction, the glass vials were silylated. […].
TLCK inhibits trypsin by alkylating the histidine residue in the catalytic triad.

| Compound | trypsin-catalyzed hydrolysis and condensation (result in words) (trypsin [1]) | Cyclic Area Percent, Trimer (x = 3), Trypsin (trypsin [2]) | Cyclic Area Percent, Trimer (x = 3), Control (trypsin [2]) | Cyclic Area Percent, Tetramer (x = 4), Trypsin (trypsin [2]) | Cyclic Area Percent, Tetramer (x = 4), Control (trypsin [2]) | also measured |
| --- | --- | --- | --- | --- | --- | --- |
| CCO[Si](C)(C)CCCOCC1CO1 (stereo not shown) [3-glycidoxypropyldimethylethoxysilane] | preferentially catalyze the hydrolysis and condensation |  |  |  |  |  |
| C[Si]1(C)O[Si](C)(C)O[Si](C)(C)O1 [A, hexamethylcyclotrisiloxane] |  | (100) | (100) |  |  |  |
| C[Si]1(C)O[Si](C)(C)O[Si](C)(C)O[Si](C)(C)O1 [B, octamethylcyclotetrasiloxane] |  | (0.2) | (0.2) | (99.8) | (99.8) |  |
| C[Si]1(CCC(F)(F)F)O[Si](C)(CCC(F)(F)F)O[Si](C)(CCC(F)(F)F)O1 (stereo not shown) [C, trimethyltri(trifluoropropyl)cyclotrisiloxane] |  | (97.1) | (97.5) | (1.9) | (1.7) | Cyclic Area Percent, Pentamer (x = 5), Trypsin (trypsin [2]): (1.0); Cyclic Area Percent, Pentamer (x = 5), Control (trypsin [2]): (0.8) |
| C[Si]1(CCC(F)(F)F)O[Si](C)(CCC(F)(F)F)O[Si](C)(CCC(F)(F)F)O[Si](C)(CCC(F)(F)F)O1 (stereo not shown) [D, tetramethyltetra(trifluoropropyl)cyclotetrasiloxane] |  | (0) | (0.2) | (94.9) | (96.3) | Cyclic Area Percent, Pentamer (x = 5), Trypsin (trypsin [2]): (5.1); Cyclic Area Percent, Pentamer (x = 5), Control (trypsin [2]): (3.4) |
| C[Si]1(c2ccccc2)O[Si](C)(c2ccccc2)O[Si](C)(c2ccccc2)O[Si](C)(c2ccccc2)O1 (stereo not shown) [E, tetramethyltetraphenylcyclotetrasiloxane] |  |  |  | (100) | (100) |  |
| Cc1ccc(S(=O)(=O)N[C@@H](CCCCN)C(=O)CCl)cc1.Cl [TLCK, N-α-p-tosyl-L-lysine chloromethyl ketone hydrochloride] |  |  |  |  |  | product yield of the α-chymotrypsin condensation reaction after TLCK treatment ([3]; replicate condensation experiment): significantly decreased |
| CCO[Si](C)(C)CCCN [aminopropyldimethylethoxysilane] | fully hydrolysed and condensed in the presence and absence of trypsin |  |  |  |  |  |
| COCCOCCOCCOCCO[Si](C)(C)C [glycol-functional silane] | not definitive |  |  |  |  |  |
| C[Si]1(C)O[Si](C)(C)O[Si](C)(O)O[Si](C)(C)O1 [heptamethylhydroxytetracyclosiloxane] | did not catalyze the condensation |  |  |  |  |  |
| CCO[Si](C)(C)c1ccccc1 [phenyldimethylethoxysilane] | hydrolysed but not condensed |  |  |  |  |  |
| CCCCCCO[Si](C)(C)C [trimethylhexoxysilane] | catalyzed the partial hydrolysis of trimethylhexoxysilane without condensation |  |  |  |  |  |
| elastase: porcine pancreatic elastase |  |  |  |  |  | condensation of trimethylsilanol (result in words) ([3]; pH 7.0, three hours): inactivity |
